Experimental data reported in patent US20240132431A1, “METHOD FOR ALKYLATING ACIDIC FUNCTIONAL GROUP” (Chugai Seiyaku Kabushiki Kaisha, priority 2021, published 2024).

Target: T1, Bcl-2 protein (Recombinant Human Bcl-2 Protein) (Homo sapiens, UniProt P10415)
T1 construct: purchased Novus NBP2-34889
Experiment: Binding evaluation of mixture library compounds to Bcl-2 using AS-MS (affinity selection mass spectrometry)
Method in brief: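 Readout is ASMS Ratio (%), (A−C)/B×100, from reversed-phase LC/MS of SEC-passed extracts, with protein-free unfiltered standard (B) and protein-free SEC blank (C). Recombinant human Bcl-2 at 20 μM final met ~1200 pooled compounds at […] each for 1 h, 23° C., dark, in Tris-HCl pH 7.4 buffer.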

T1 sequence (P10415 whole entry): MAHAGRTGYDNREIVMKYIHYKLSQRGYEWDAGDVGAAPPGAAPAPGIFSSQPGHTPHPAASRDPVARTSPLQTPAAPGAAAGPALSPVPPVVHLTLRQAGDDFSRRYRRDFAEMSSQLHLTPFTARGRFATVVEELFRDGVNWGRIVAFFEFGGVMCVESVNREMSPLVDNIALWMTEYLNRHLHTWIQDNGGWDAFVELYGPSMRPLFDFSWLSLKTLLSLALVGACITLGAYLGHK

Compound	ASMS ratio (%) (n = 1)	ASMS ratio (%) (n = 2)
CCOc1cncc(-c2csc(C(=O)N3CCN(c4ccc(C(=O)NS(=O)(=O)c5ccc(NCCSc6ccccc6)c(C(F)(F)F)c5)cc4)CC3)c2)c1 [B2R024-01, 4-[4-[4-(5-Ethoxypyridin-3-yl)thiophene-2-carbonyl]piperazin-1-yl]-N-[4-(2-phenylsulfanylethylamino)-3-(trifluoromethyl)phenyl]sulfonylbenzamide]	0.0	−1.2
CCOc1cccc(C#Cc2ccccc2C(=O)N2CCN(c3ccc(C(=O)NS(=O)(=O)c4ccc(NCCSc5ccccc5)c(C(F)(F)F)c4)cc3)CC2)c1 [B2R029-01, 4-[4-[2-[2-(3-Ethoxyphenyl)ethynyl]benzoyl]piperazin-1-yl]-N-[4-(2-phenylsulfanylethylamino)-3-(trifluoromethyl)phenyl]sulfonylbenzamide]		0.0
CCOc1cncc(C#Cc2ccccc2C(=O)N2CCN(c3ccc(C(=O)NS(=O)(=O)c4ccc(NCCSc5ccccc5)c(C(F)(F)F)c4)cc3)CC2)c1 [B2R030-01, 4-[4-[2-[2-(5-Ethoxypyridin-3-yl)ethynyl]benzoyl]piperazin-1-yl]-N-[4-(2-phenylsulfanylethylamino)-3-(trifluoromethyl)phenyl]sulfonylbenzamide]	0.0	4.8
CCOc1cccc(C#Cc2cncc(C(=O)N3CCN(c4ccc(C(=O)NS(=O)(=O)c5ccc(NCCSc6ccccc6)c(C(F)(F)F)c5)cc4)CC3)c2)c1 [B2R031-01, 4-[4-[5-[2-(3-Ethoxyphenyl)ethynyl]pyridine-3-carbonyl]piperazin-1-yl]-N-[4-(2-phenylsulfanylethylamino)-3-(trifluoromethyl)phenyl]sulfonylbenzamide]	0.0	4.8
CCOc1cncc(C#Cc2cncc(C(=O)N3CCN(c4ccc(C(=O)NS(=O)(=O)c5ccc(NCCSc6ccccc6)c(C(F)(F)F)c5)cc4)CC3)c2)c1 [B2R032-01, 4-[4-[5-[2-(5-Ethoxypyridin-3-yl)ethynyl]pyridine-3-carbonyl]piperazin-1-yl]-N-[4-(2-phenylsulfanylethylamino)-3-(trifluoromethyl)phenyl]sulfonylbenzamide]	6.4	0.0
CCOc1cccc(-c2ccccc2CCC(=O)N2CCN(c3ccc(C(=O)NS(=O)(=O)c4ccc(NCCSc5ccccc5)c(C(F)(F)F)c4)cc3)CC2)c1 [B2R033-01, 4-[4-[3-[2-(3-Ethoxyphenyl)phenyl]propanoyl]piperazin-1-yl]-N-[4-(2-phenylsulfanylethylamino)-3-(trifluoromethyl)phenyl]sulfonylbenzamide]	3.6	−6.6
CCOc1cncc(-c2ccccc2CCC(=O)N2CCN(c3ccc(C(=O)NS(=O)(=O)c4ccc(NCCSc5ccccc5)c(C(F)(F)F)c4)cc3)CC2)c1 [B2R034-01, 4-[4-[3-[2-(5-Ethoxypyridin-3-yl)phenyl]propanoyl]piperazin-1-yl]-N-[4-(2-phenylsulfanylethylamino)-3-(trifluoromethyl)phenyl]sulfonylbenzamide]	0.1	−1.3
CCOc1cncc(-c2ccc(C(=O)N3CCN(c4ccc(C(=O)NS(=O)(=O)c5ccc(NCCSc6ccccc6)c(C(F)(F)F)c5)cc4)CC3)c3ccccc23)c1 [B2R036-01, 4-[4-[4-(5-Ethoxypyridin-3-yl)naphthalene-1-carbonyl]piperazin-1-yl]-N-[4-(2-phenylsulfanylethylamino)-3-(trifluoromethyl)phenyl]sulfonylbenzamide]	3.2	−0.8
CCOc1cncc(-c2cc(C(=O)N3CCN(c4ccc(C(=O)NS(=O)(=O)c5ccc(NCCSc6ccccc6)c(C(F)(F)F)c5)cc4)CC3)cc(C(C)(C)C)c2)c1 [B2R038-01, 4-[4-[3-tert-Butyl-5-(5-ethoxypyridin-3-yl)benzoyl]piperazin-1-yl]-N-[4-(2-phenylsulfanylethylamino)-3-(trifluoromethyl)phenyl]sulfonylbenzamide]	7.1	−6.0

Second part, the compound after the results:

ASMS ratio (%) (n = 1)	ASMS ratio (%) (n = 2)	Compound
0.0	−15.5	CCOc1cccc(-c2csc(C(=O)N3CCN(c4ccc(C(=O)NS(=O)(=O)c5ccc(NCCSc6ccccc6)c(C(F)(F)F)c5)cc4)CC3)c2)c1 [B2R023-01, 4-[4-[4-(3-Ethoxyphenyl)thiophene-2-carbonyl]piperazin-1-yl]-N-[4-(2-phenylsulfanylethylamino)-3-(trifluoromethyl)phenyl]sulfonylbenzamide]
−1.0	−2.4	CCOc1cccc(-c2ccc(C(=O)N3CCN(c4ccc(C(=O)NS(=O)(=O)c5ccc(NCCSc6ccccc6)c(C(F)(F)F)c5)cc4)CC3)cc2C)c1 [B2R025-01, 4-[4-[4-(3-Ethoxyphenyl)-3-methylbenzoyl]piperazin-1-yl]-N-[4-(2-phenylsulfanylethylamino)-3-(trifluoromethyl)phenyl]sulfonylbenzamide]
1.7	−4.6	CCOc1cncc(-c2ccc(C(=O)N3CCN(c4ccc(C(=O)NS(=O)(=O)c5ccc(NCCSc6ccccc6)c(C(F)(F)F)c5)cc4)CC3)cc2C)c1 [B2R026-01, 4-[4-[4-(5-Ethoxypyridin-3-yl)-3-methylbenzoyl]piperazin-1-yl]-N-[4-(2-phenylsulfanylethylamino)-3-(trifluoromethyl)phenyl]sulfonylbenzamide]
−3.7	1.2	CCOc1cccc(-c2ccc(C(=O)N3CCN(c4ccc(C(=O)NS(=O)(=O)c5ccc(NCCSc6ccccc6)c(C(F)(F)F)c5)cc4)CC3)cc2F)c1 [B2R027-01, 4-[4-[4-(3-Ethoxyphenyl)-3-fluorobenzoyl]piperazin-1-yl]-N-[4-(2-phenylsulfanylethylamino)-3-(trifluoromethyl)phenyl]sulfonylbenzamide]
4.1	−0.5	CCOc1cncc(-c2ccc(C(=O)N3CCN(c4ccc(C(=O)NS(=O)(=O)c5ccc(NCCSc6ccccc6)c(C(F)(F)F)c5)cc4)CC3)cc2F)c1 [B2R028-01, 4-[4-[4-(5-Ethoxypyridin-3-yl)-3-fluorobenzoyl]piperazin-1-yl]-N-[4-(2-phenylsulfanylethylamino)-3-(trifluoromethyl)phenyl]sulfonylbenzamide]
8.3	0.9	CCOc1cccc(-c2ccc(C(=O)N3CCN(c4ccc(C(=O)NS(=O)(=O)c5ccc(NCCSc6ccccc6)c(C(F)(F)F)c5)cc4)CC3)c3ccccc23)c1 [B2R035-01, 4-[4-[4-(3-Ethoxyphenyl)naphthalene-1-carbonyl]piperazin-1-yl]-N-[4-(2-phenylsulfanylethylamino)-3-(trifluoromethyl)phenyl]sulfonylbenzamide]
6.3	−7.0	CCOc1cccc(-c2cc(C(=O)N3CCN(c4ccc(C(=O)NS(=O)(=O)c5ccc(NCCSc6ccccc6)c(C(F)(F)F)c5)cc4)CC3)cc(C(C)(C)C)c2)c1 [B2R037-01, 4-[4-[3-tert-Butyl-5-(3-ethoxyphenyl)benzoyl]piperazin-1-yl]-N-[4-(2-phenylsulfanylethylamino)-3-(trifluoromethyl)phenyl]sulfonylbenzamide]
